Test results reported in US6495673B1, “Method for isolating the DNA encoding an enzyme” (Medical Research Council, priority 1996, dated 2002).
Blank lines part the entries; values can stand above or below the substance they belong to. No end group written: not given here. *: point of attachment. Biotin = O=C1N[C@H]2[C@H](CS[C@H]2CCCCC(=O)*)N1

How the values were obtained:
[1] = molecular target: T1, calmodulin-tagged phage DN323 (Homo sapiens, UniProt P0DP23); test: Stability of (calmodulin-tagged phage)/peptide complex to PEG precipitation, ELISA; format: binding; conditions: 20% PEG 6000 + 2.5M NaCl, 1 hour on ice
T1 construct: made in house; host or cells: E. coli (phage production)
Procedure: Stability of (calmodulin-tagged phage)/peptide complexes to PEG precipitation was checked as follows. A 10^−8M solution (final concentration) of a biotinylated calmodulin-binding peptide […] was added to 1 ml of calmodulin-tagged phage (10^12 transforming unit/ml) in TBSC and incubated for 10 minutes. To this solution, 20% polyethyleneglycol (Mw6000) +2.5M NaCl was added (200 μl ) and the resulting mixture was incubated on ice for 1 hour, then centrifuged on a bench centrifuge (13,000 rpm; 5 minutes).
The pellet was resuspended in 1 ml of TBSC. The titre of the phage solutions before and after PEG precipitation were then determined. The fraction of phage particles that were still peptide-bound after the PEG precipitation procedure was evaluated by ELISA, using a streptavidin-coated plate (see above).
The difference in ELISA binding activity between the sample before (1) and after (2) PEG precipitation corresponds to a small loss in phage titre, as determined by E. coli infection and titration. In sample 3, 2% milk in TBSC was used instead of phage.

[2] = molecular target: T1, calmodulin-tagged phage DN323; test: Competition assay of (calmodulin-tagged phage)/(biotin-peptide) complex with 1000-fold excess unlabeled peptide, ELISA; format: binding; conditions: 1000-fold molar excess of non-biotinylated peptide
Procedure: A 10^−8 M solution of a biotinylated calmodulin-binding peptide ([…] or […]; Montigiani et al., 1996) was added to calmodulin-tagged phage preparations (10^12 transforming units/ml) in TBSC and incubated for 10 minutes. To the resulting mixture, aliquoted in different tubes, unlabeled […] peptide in 1000-fold molar excess (10^−5 M) was added at different times. The fraction of phage particles in which the biotinylated peptide had been replaced by the unlabeled peptide was then determined by ELISA as described above.
The results of a competition assay of (calmodulin-tagged phage DN323)/(biotin-peptide) complex with a 1000-fold molar excess of non-biotinylated calmodulin-binding peptide, detected by ELISA are illustrated in FIG. 5. Squares: […]; circles, CAAARAXKNFIAVSAANRFKKIS.

[3] = molecular target: calmodulin (Homo sapiens, UniProt P0DP23); conditions: cited from earlier work
[4] = system: LUCK+ peptide substrate / GST-SH2 fusion; test: Selection of lck tyrosine kinase phage by capture of phosphorylated peptide on GST-SH2; format: biochemical, murine; conditions: LUCK- peptide instead of LUCK+, all three phages
Procedure: As affinity capture reagent a GST-fusion of the N-terminal SH2 domain of PI 3-kinase was used, subcloned in pGEX vector (Pharmacia) and affinity-purified on glutathione agarose. The GST-SH2 fusion was coated on Nunc Immunotubes (4 ml; 100 μg/ml in PBS) at room temperature overnight. The tubes were then washed and incubated for 2 hours with 3% BSA in phosphorylation buffer (30 mM HEPES, pH 7.4, 150 mM NaCl, 12 mM MgCl2, 1 mM sodium vanadate, 1 mM CaCl2).
ATP was then added to a final concentration of 100 μM. After one minute, the mixtures were loaded onto separate GST-SH2-coated immunotubes and incubated for 30 minutes. The tubes were then washed 10 times with TBS +1 mM CaCl2 (TBSC) +0.1% Tween-20 and 10 times with TBSC. The phage bound to the tube via the phosphorylated peptide was specifically eluted with 1 ml 10 mM EGTA in PBS (Neri et al., 1995) that causes dissociation of the peptide ligand from calmodulin present in the fusion protein presented on the phage.
The eluted phage was used to infect exponentially growing TG1 E. coli cells according to standard procedures (Nissim et al., 1994), then plated on selective ampicillin-glucose-TY plates. Ampicillin-resistant transformants were counted and used to calculate the titre of the phage recovered in the selection procedure.

Substance: Biotin-CAAARWKKAFIAVSAANRFKKIS
stability of calmodulin/peptide complex upon PEG precipitation [1]: stable even after PEG precipitation

koff [2]: < 10^−1 s^−1
time for which complex with calmodulin-tagged phage is stable [2]: more than 2 hours
Substance: CAAARWKKAFIAVSAANRFKKIS
Kd [3]: 2.2 pM

phage titres recovered [4]: low phage titres
Substance: EPQFEEIGAARWKKAFIAVSNMFKKIS [LUCK-]
